Reference: patent publication US8501400B2, “Methods and compositions for determining the pathogenic status of infectious agents” (priority 2007, dated 2013)

Key:
RIF-resistant Mtb strain = format: cell-based; settings: 16 hr drug treatment, MOI=1, 4 hr post-infection, RT-PCR
EMB resistant Mtb strain = format: cell-based; settings: 16 hr drug treatment, MOI=1, 4 hr post-infection, RT-PCR

`CC[C@@H](CO)NCCN[C@@H](CC)CO` [EMB, Ethambutol] was tested, and the “Reduction in SML generation compared to the untreated control” value (RIF-resistant Mtb strain) was “approximately 10 fold” and the “SML generation after drug treatment” value (EMB resistant Mtb strain) was “not decreased”.
